Reference: patent US6174858A, “Conjugates useful in the treatment of prostate cancer” (Merck & Co., Inc., priority 1998, dated 2001)
Read-outs that look alike come from different tables or passages of the source.

Key:
[1] = test system: LNCaP prostate tumor cells; assay: In vitro cytotoxicity, Alamar Blue assay, LNCaP cell kill; assay type: cell-based; conditions: 72 HRS
Protocol: (§1) In vitro Assay of Cytotoxicity of Peptidyl Derivatives of Vinca Drugs
(§2) Specifically, cell cultures of LNCap prostate tumor cells, Colo32ODM cells (designated C320) or T47D cells in 96 well plates was diluted with medium containing various concentrations of a given conjugate (final plate well volume of 200 μl). […] The cells were incubated for 3 days at 37° C., 20 μl of Alamar Blue is added to the assay well. The cells were further incubated and the assay plates were read on a EL-310 ELISA reader at the dual wavelengths of 570 and 600 nm at 4 and 7 hours after addition of Alamar Blue. Relative percentage viability at the various concentration of conjugate tested was then calculated versus control (no conjugate) cultures and an EC50 was determined. Unless otherwise indicated, the acetate salt of the conjugate was tested.

Colo320DM cells = assay: In vitro cytotoxicity, Alamar Blue assay, Colo320DM control cell line (does not express free PSA); assay type: cell-based; conditions: 72 HRS
Protocol: as §1
as §2, with “The cytotoxicities of the cleaveable oligopeptide-vinca drug conjugates, prepared as described in Example 3, against a line of cells which is known to be killed by unmodified vinca drug was assessed with an Alamar Blue assay. Specifically,” for “Specifically,”

[2] = second part of Table 2, read-out: LNCaP Cell Kill in 72 HRS. {48 HRS} EC 50
[3] = second part of Table 2, read-out: Colo320DM EC 50
[4] = read-out: LNCaP Cell Kill in 72 HRS. {48 HRS} EC 50

| SMILES | EC50 [1, 2] | EC50 (Colo320DM cells; [3]) | EC50 [1, 4] | EC50 (Colo320DM cells; read-out: Colo320DM EC 50) |
| --- | --- | --- | --- | --- |
| CCC(N)C(=O)OC1C2(CC)C=CCN3CCC4(c5cc(C6(C(=O)OC)CC7CN(CCc8c6[nH]c6ccccc86)CC(O)(CC)C7)c(OC)cc5N(C)C4C1(O)C(=O)OC)C32 (racemic) [4-O-Abu-(dAc)-VIN, racemic mixture] | 3800 nM | 5500 nM | – | – |
| CCC1(O)CC2CN(CCc3c([nH]c4ccccc34)C(C(=O)OC)(c3cc4c(cc3OC)N(C)C3C(O)(C(=O)OC)C(OC(=O)C5CCCN5C(=O)C(N)CO)C5(CC)C=CCN6CCC43C65)C2)C1 (stereo not shown) [4-O-(SP)-dAc-VIN] | 100 nM | 300 nM | – | – |
| CCC1(O)CC2CN(CCc3c([nH]c4ccccc34)C(C(=O)OC)(c3cc4c(cc3OC)N(C)C3C(O)(C(=O)OC)C(OC(=O)C5CCCN5C(=O)C(CO)NC(=O)C(N)CO)C5(CC)C=CCN6CCC43C65)C2)C1 (stereo not shown) [4-O-(SSP)-dAc-VIN] | 2000 nM | 14500 nM | – | – |
| CCC1(O)CC2CN(CCc3c([nH]c4ccccc34)C(C(=O)OC)(c3cc4c(cc3OC)N(C)C3C(O)(C(=O)OC)C(OC(=O)C5CCCN5)C5(CC)C=CCN6CCC43C65)C2)C1 (stereo not shown) [4-O-(d)-prolyl-(dAc)-VIN ester] | 2000 nM | 4100 nM | – | – |
| CCC1(O)CC2CN(CCc3c([nH]c4ccccc34)C(C(=O)OC)(c3cc4c(cc3OC)N(C)C3C(O)(C(=O)OC)C(OC(=O)C5CCCN5)C5(CC)C=CCN6CCC43C65)C2)C1 (stereo not shown) [4-O-(prolyl)-dAc-VIN, 4-des- Acetylvinblastine 4-O-(Prolyl) ester] | 700 nM | 4100 nM | – | – |
| CCC(N)C(=O)O[C@@H]1[C@]2(CC)C=CCN3CC[C@@]4(c5cc([C@@]6(C(=O)OC)C[C@@H]7CN(CCc8c6[nH]c6ccccc86)C[C@](O)(CC)C7)c(OC)cc5N(C)[C@H]4[C@@]1(O)C(=O)OC)[C@@H]32 (stereo partly shown) [4-O-Abu-(dAc)-VIN, I isoform] | 3900 nM | 2300 nM | – | – |
| CCC1(O)CC2CN(CCc3c([nH]c4ccccc34)C(C(=O)OC)(c3cc4c(cc3OC)N(C)C3C(O)(C(=O)OC)C(OC(=O)C(C)NC)C5(CC)C=CCN6CCC43C65)C2)C1 (stereo not shown) [4-O-[N-Me-dA]-dAc-VIN] | 1000 nM | 1700 nM | – | – |
| CC[C@]1(O)C[C@@H]2CN(CCc3c([nH]c4ccccc34)[C@@](C(=O)OC)(c3cc4c(cc3OC)N(C)[C@H]3[C@@](O)(C(=O)OC)[C@H](OC(=O)CN)[C@]5(CC)C=CCN6CC[C@]43[C@@H]65)C2)C1 [4-O-glycine-(dAc)-VIN] | – | – | 300 nM | 1800 nM |
| CC[C@]1(O)C[C@H]2CN(CCc3c([nH]c4ccccc34)[C@@](C(=O)OC)(c3cc4c(cc3OC)N(C)[C@H]3[C@@](O)(C(=O)OC)[C@H](OC(=O)[C@@H](N)CC(C)C)[C@]5(CC)C=CCN6CC[C@]43[C@@H]65)C2)C1 [4-O-leucyl-(dAc)-VIN] | 4500 nM | 4500 nM | – | – |
| CCC1(O)CC2CN(CCc3c([nH]c4ccccc34)C(C(=O)OC)(c3cc4c(cc3OC)N(C)C3C(O)(C(=O)OC)C(OC(=O)C5CCCCN5)C5(CC)C=CCN6CCC43C65)C2)C1 (stereo not shown) [4-O-pipecolyl-dAc-VIN] | 700 nM | 700 nM | – | – |
| CC[C@]1(O)C[C@H]2CN(CCc3c([nH]c4ccccc34)[C@@](C(=O)OC)(c3cc4c(cc3OC)N(C)[C@H]3[C@@](O)(C(=O)OC)[C@H](OC(=O)CNC)[C@]5(CC)C=CCN6CC[C@]43[C@@H]65)C2)C1 [4-O-sarcosyl-(dAc)-VIN] | – | – | 1300 nM | 1800 nM |
| CCC1(O)CC2CN(CCc3c([nH]c4ccccc34)C(C(=O)OC)(c3cc4c(cc3OC)N(C)C3C(O)(C(=O)OC)C(OC(=O)CO)C5(CC)C=CCN6CCC43C65)C2)C1 (stereo not shown) [4-hydroxyacetyl-VIN] | 1300 nM | 3300 nM | – | – |
| CCC1(O)CC2CN(CCc3c([nH]c4ccccc34)C(C(=O)OC)(c3cc4c(cc3OC)N(C)C3C(O)(C(=O)OC)C(OC(=O)C5CC(O)CN5)C5(CC)C=CCN6CCC43C65)C2)C1 [(4-O-4-trans-L-Hyp)-dAc-VIN] | – | – | 600 nM | 1100 nM |
| CCC1(O)CC2CN(CCc3c([nH]c4ccccc34)C(C(=O)OC)(c3cc4c(cc3OC)N(C)C3C(O)(C(=O)OC)C(OC(=O)C(C)N)C5(CC)C=CCN6CCC43C65)C2)C1 (stereo not shown) [(4-O-Ala)-(dAc)-VIN] | 600 nM | 4200 nM | – | – |
